Source: ChEMBL document CHEMBL4190267, “Discovery of potent molecular chimera (CM358) to treat human metastatic melanoma” (Eur J Med Chem, 2017)
Active and inactive are the calls of the source. The calls are words filed in the database; no cut-off is given here.

Experiments:
[1] = system: WM 266-4; experiment: Antitumor activity against human WM266.4 cells xenografted in athymic Foxn1 nu mouse assessed as tumor growth inhibition at 25 mg/kg, ip administered once daily for 3 days followed by resting period of 4 days repeated for 4 weeks starting from 5 days post tumor inoculation measured on day 21 relative to control; type: functional; details: WM 266-4, ip, read-out: TGI
[2] = system: WM 266-4; experiment: Antitumor activity against human WM266.4 cells xenografted in athymic Foxn1 nu mouse assessed as mouse survival at 10 mg/kg, ip administered once daily for 3 days followed by resting period of 4 days repeated for 4 weeks starting from 5 days post tumor inoculation relative to control; type: functional; details: WM 266-4, ip
[3] = system: WM 266-4; experiment: Cell cycle arrest in human WM266.4 cells assessed as accumulation at G1 phase at 10 uM after 2 hrs by propidium iodide staining based flow cytometry (reference value: 59%); type: functional
[4] = system: WM 266-4; experiment: Cell cycle arrest in human WM266.4 cells assessed as accumulation at G2 phase at 10 uM after 8 hrs by propidium iodide staining based flow cytometry (reference value: 11%); type: functional
[5] = system: WM 266-4; experiment: Cell cycle arrest in human WM266.4 cells assessed as accumulation at G1 phase at 10 uM after 24 hrs by propidium iodide staining based flow cytometry (reference value: 59%); type: functional
[6] = system: WM 266-4; experiment: Antitumor activity against human WM266.4 cells xenografted in athymic Foxn1 nu mouse assessed as increase in 50% survival of mouse at 10 mg/kg, ip administered once daily for 7 days followed by resting period of 2 days repeated for 4 weeks starting from 5 days post tumor inoculation relative to control; type: functional
[7] = system: WM 266-4; experiment: Induction of apoptosis in human WM266.4 cells assessed as late apoptotic cells at 10 uM after 2 hrs by Annexin V-FITC/propidium iodide staining based flow cytometry (reference value: 1.41%); type: functional
[8] = Half life in human WM266.4 cells by LC-MS analysis; type: ADME, cell-based, WM 266-4
[9] = system: WM 266-4; experiment: Induction of apoptosis in human WM266.4 cells assessed as late apoptotic cells at 25 uM after 24 hrs by Annexin V-FITC/propidium iodide staining based flow cytometry (reference value: 1.41%); type: functional
[10] = system: WM 266-4; experiment: Induction of apoptosis in human WM266.4 cells assessed as live cells at 10 uM after 8 hrs by Annexin V-FITC/propidium iodide staining based flow cytometry (reference value: 94.7%); type: functional
[11] = system: WM 266-4; experiment: Induction of apoptosis in human WM266.4 cells assessed as live cells at 25 uM after 8 hrs by Annexin V-FITC/propidium iodide staining based flow cytometry (reference value: 94.7%); type: functional
[12] = system: WM 266-4; experiment: Induction of apoptosis in human WM266.4 cells assessed as necrotic cells at 10 uM after 24 hrs by Annexin V-FITC/propidium iodide staining based flow cytometry (reference value: 1.22%); type: functional
[13] = system: WM 266-4; experiment: Cell cycle arrest in human WM266.4 cells assessed as accumulation at S phase at 10 uM after 24 hrs by propidium iodide staining based flow cytometry (reference value: 27%); type: functional
[14] = system: WM 266-4; experiment: Induction of apoptosis in human WM266.4 cells assessed as late apoptotic cells at 25 uM after 2 hrs by Annexin V-FITC/propidium iodide staining based flow cytometry (reference value: 1.41%); type: functional
[15] = system: WM 266-4; experiment: Antitumor activity against human WM266.4 cells xenografted in athymic Foxn1 nu mouse assessed as tumor growth inhibition at 10 mg/kg, ip administered once daily for 7 days followed by resting period of 2 days repeated for 4 weeks starting from 5 days post tumor inoculation measured on day 19; type: functional, organism-based
[16] = system: WM 266-4; experiment: Cell cycle arrest in human WM266.4 cells assessed as accumulation at S phase at 10 uM after 2 hrs by propidium iodide staining based flow cytometry (reference value: 27%); type: functional
[17] = system: WM 266-4; experiment: Antitumor activity against human WM266.4 cells xenografted in athymic Foxn1 nu mouse assessed as tumor growth inhibition at 5 mg/kg, ip administered once daily for 7 days followed by resting period of 2 days repeated for 4 weeks starting from 5 days post tumor inoculation measured on day 21; type: functional, organism-based
[18] = system: WM 266-4; experiment: Induction of apoptosis in human WM266.4 cells assessed as live cells at 25 uM after 24 hrs by Annexin V-FITC/propidium iodide staining based flow cytometry (reference value: 94.7%); type: functional
[19] = target: DNA topoisomerase 2-alpha (Homo sapiens) (UniProt P11388); experiment: Inhibition of human topoisomerase-2alpha assessed as reduction in enzyme-mediated decatenation at 25 uM using kinetoplast DNA as substrate after 25 mins by ethidium bromide staining based agarose gel electrophoresis method
DNA topoisomerase 2-alpha (Homo sapiens), sequence (P11388 whole entry): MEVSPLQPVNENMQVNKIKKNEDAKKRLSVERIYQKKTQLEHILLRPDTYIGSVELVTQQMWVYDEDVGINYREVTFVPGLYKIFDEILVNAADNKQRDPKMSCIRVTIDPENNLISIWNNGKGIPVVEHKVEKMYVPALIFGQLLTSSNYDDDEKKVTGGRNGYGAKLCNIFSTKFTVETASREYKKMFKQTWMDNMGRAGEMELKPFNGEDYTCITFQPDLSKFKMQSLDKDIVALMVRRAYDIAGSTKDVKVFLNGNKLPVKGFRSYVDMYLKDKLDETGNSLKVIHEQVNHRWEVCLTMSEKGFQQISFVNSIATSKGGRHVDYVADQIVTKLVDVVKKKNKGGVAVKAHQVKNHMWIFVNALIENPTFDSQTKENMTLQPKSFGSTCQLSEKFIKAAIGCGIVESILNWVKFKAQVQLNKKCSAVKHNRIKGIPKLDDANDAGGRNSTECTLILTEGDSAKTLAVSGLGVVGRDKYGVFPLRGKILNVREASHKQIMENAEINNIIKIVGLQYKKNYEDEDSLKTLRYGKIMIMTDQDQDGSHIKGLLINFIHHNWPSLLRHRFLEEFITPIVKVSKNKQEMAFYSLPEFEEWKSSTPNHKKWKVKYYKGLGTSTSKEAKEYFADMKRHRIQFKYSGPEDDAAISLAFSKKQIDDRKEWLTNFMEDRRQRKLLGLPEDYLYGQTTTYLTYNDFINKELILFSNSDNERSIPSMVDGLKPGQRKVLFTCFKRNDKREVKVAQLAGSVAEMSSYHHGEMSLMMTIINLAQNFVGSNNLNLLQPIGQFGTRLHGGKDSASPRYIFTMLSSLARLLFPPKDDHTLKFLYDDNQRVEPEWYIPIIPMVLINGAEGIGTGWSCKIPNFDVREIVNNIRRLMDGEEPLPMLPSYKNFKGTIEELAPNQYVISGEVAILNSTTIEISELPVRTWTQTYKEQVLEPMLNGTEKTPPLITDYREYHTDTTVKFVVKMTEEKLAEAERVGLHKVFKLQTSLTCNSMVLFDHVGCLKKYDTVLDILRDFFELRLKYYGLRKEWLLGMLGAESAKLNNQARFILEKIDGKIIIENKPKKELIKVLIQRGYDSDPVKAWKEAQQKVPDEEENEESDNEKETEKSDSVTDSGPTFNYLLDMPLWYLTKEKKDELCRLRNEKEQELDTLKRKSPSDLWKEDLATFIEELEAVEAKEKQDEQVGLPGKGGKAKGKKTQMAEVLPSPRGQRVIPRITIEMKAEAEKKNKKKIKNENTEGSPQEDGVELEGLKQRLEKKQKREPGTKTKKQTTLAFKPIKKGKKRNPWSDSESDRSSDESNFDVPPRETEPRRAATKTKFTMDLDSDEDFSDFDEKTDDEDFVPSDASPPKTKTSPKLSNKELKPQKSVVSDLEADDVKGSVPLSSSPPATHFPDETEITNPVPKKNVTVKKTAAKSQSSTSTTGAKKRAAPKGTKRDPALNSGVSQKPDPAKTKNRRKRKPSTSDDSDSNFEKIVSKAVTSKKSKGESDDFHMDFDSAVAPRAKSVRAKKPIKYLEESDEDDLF

[20] = system: WM 266-4; experiment: Induction of apoptosis in human WM266.4 cells assessed as early apoptotic cells at 10 uM after 24 hrs by Annexin V-FITC/propidium iodide staining based flow cytometry (reference value: 2.64%); type: functional
[21] = Half life in pH 7.4 PBS buffer by LC-MS analysis; type: physicochemical
[22] = system: Mus musculus; experiment: Toxicity in athymic Foxn1 nu mouse assessed as abnormal gross behavioral changes at 10 mg/kg, ip administered once daily for 3 days followed by resting period of 4 days repeated for 4 weeks; type: organism-based; details: in vivo
[23] = system: WM 266-4; experiment: Induction of apoptosis in human WM266.4 cells assessed as early apoptotic cells at 25 uM after 8 hrs by Annexin V-FITC/propidium iodide staining based flow cytometry (reference value: 2.64%); type: functional
[24] = system: WM 266-4; experiment: Cell cycle arrest in human WM266.4 cells assessed as accumulation at S phase at 10 uM after 8 hrs by propidium iodide staining based flow cytometry (reference value: 27%); type: functional
[25] = system: WM 266-4; experiment: Induction of apoptosis in human WM266.4 cells assessed as live cells at 25 uM after 2 hrs by Annexin V-FITC/propidium iodide staining based flow cytometry (reference value: 94.7%); type: functional
[26] = system: WM 266-4; experiment: Growth inhibition of human WM266.4 cells preincubated for 6 hrs followed compound washout measured after 24 hrs by XTT assay; type: functional
[27] = system: WM 266-4; experiment: Cell cycle arrest in human WM266.4 cells assessed as accumulation at G2 phase at 10 uM after 2 hrs by propidium iodide staining based flow cytometry (reference value: 11%); type: functional
[28] = system: WM 266-4; experiment: Cell cycle arrest in human WM266.4 cells assessed as accumulation at G2 phase at 10 uM after 24 hrs by propidium iodide staining based flow cytometry (reference value: 11%); type: functional
[29] = system: WM 266-4; experiment: Induction of apoptosis in human WM266.4 cells assessed as necrotic cells at 25 uM after 8 hrs by Annexin V-FITC/propidium iodide staining based flow cytometry (reference value: 1.22%); type: functional
[30] = system: WM 266-4; experiment: Induction of apoptosis in human WM266.4 cells assessed as late apoptotic cells at 25 uM after 8 hrs by Annexin V-FITC/propidium iodide staining based flow cytometry (reference value: 1.41%); type: functional
[31] = system: WM 266-4; experiment: Induction of apoptosis in human WM266.4 cells assessed as necrotic cells at 10 uM after 8 hrs by Annexin V-FITC/propidium iodide staining based flow cytometry (reference value: 1.22%); type: functional
[32] = system: WM 266-4; experiment: Cell cycle arrest in human WM266.4 cells assessed as accumulation at G1 phase at 10 uM after 8 hrs by propidium iodide staining based flow cytometry (reference value: 59%); type: functional
[33] = system: PC-3; experiment: Growth inhibition of human PC3 cells preincubated for 6 hrs followed compound washout measured after 24 hrs by XTT assay; type: functional
[34] = system: WM 266-4; experiment: Induction of apoptosis in human WM266.4 cells assessed as early apoptotic cells at 10 uM after 2 hrs by Annexin V-FITC/propidium iodide staining based flow cytometry (reference value: 2.64%); type: functional
[35] = system: WM 266-4; experiment: Induction of apoptosis in human WM266.4 cells assessed as necrotic cells at 25 uM after 24 hrs by Annexin V-FITC/propidium iodide staining based flow cytometry (reference value: 1.22%); type: functional

CN(C)CCN1C(=O)c2cccc3cc(NC(=O)CCCc4ccc(N(CCCl)CCCl)cc4)cc(c23)C1=O.O=C(O)C(F)(F)F
inhibition in vivo at 25 mg/kg [1]: 46%
survival at 10 mg/kg [2]: 60%
Activity [3]: 39%
Activity [4]: 17%
Activity [5]: 36%
Activity [6]: 24%
Activity [7]: 1.46%
half-life [8]: 25 h
Activity [9]: 19.8%
Activity [10]: 82.4%
Activity [11]: 61.1%
Activity [12]: 10.3%
Activity [13]: 38%
Activity [14]: 3.94%
TGI [15]: Active
Activity [16]: 45%
TGI [17]: inactive
Activity [18]: 40%
inhibition [19]: Active
Activity [20]: 3.9%
half-life [21]: 25 h
Activity [22]: Non-Toxic
Activity [23]: 5.46%
Activity [24]: 46%
Activity [25]: 72.9%
GI50 [26]: 8.8 µM
Activity [27]: 15%
Activity [28]: 24%
Activity [29]: 27.9%
Activity [30]: 5.47%
Activity [31]: 9.33%
Activity [32]: 35%
GI50 [33]: 7.1 µM
Activity [34]: 5.05%
Activity [35]: 21.4%
